Measurements published in the CheMixHub viscosity set.

Test: xn = mol fraction of the nth substance listed

CCOCCO + C=C(C)C(=O)OC
viscosity [mPa·s], 101.3 kPa
Conditions	298.15 K	308.15 K
x2 = 0.0533	1.64	1.305
x2 = 0.154	1.402	1.146
x2 = 0.2467	1.225	1.022
x2 = 0.3554	1.059	0.9
x2 = 0.4551	0.937	0.807
x2 = 0.4993	0.89	0.77
x2 = 0.5543	0.838	0.727
x2 = 0.6547	0.758	0.658
x2 = 0.7547	0.693	0.6
x2 = 0.8858	0.628	0.537
x2 = 0.9532	0.603	0.517

Oc1ccc(Cl)cc1 + CCCCCOC(C)=O
Conditions	viscosity [mPa·s]
298.15 K, 101 kPa, x1 = 0.5	1.27

CC(C)CCO + CN(C)C=O
Conditions	viscosity [mPa·s]
298.15 K, 101 kPa, x2 = 0.5467	1.634

CNC(C)=O + CC(=O)c1ccccc1
308.15 K, 101 kPa
Conditions	viscosity [mPa·s]
x2 = 0.0686	3.109
x2 = 0.138	2.919
x2 = 0.2189	2.657
x2 = 0.3143	2.397
x2 = 0.3938	2.199
x2 = 0.4912	1.965
x2 = 0.6042	1.747
x2 = 0.7227	1.561
x2 = 0.8517	1.455

CC(C)CCO + C1COCCO1
viscosity [mPa·s], 101 kPa
Conditions	x1 = 0.1	x1 = 0.2067	x1 = 0.3006	x1 = 0.4011	x1 = 0.5011	x1 = 0.609	x1 = 0.7009	x1 = 0.8003	x1 = 0.908
298.15 K	1.135	1.151	1.189	1.261	1.37	1.519	1.737	2.122	2.79
303.15 K	1.049	1.068	1.116	1.177	1.265	1.388	1.562	1.87	2.429
308.15 K	0.9581	0.9865	1.039	1.097	1.156	1.243	1.359	1.615	2.081

CCOCCO + Cc1ccccc1C
viscosity [mPa·s], 101 kPa
Conditions	298.15 K	308.15 K
x1 = 0.0533	0.777	0.674
x1 = 0.1508	0.817	0.708
x1 = 0.2502	0.867	0.75
x1 = 0.3516	0.931	0.8
x1 = 0.4528	1.009	0.858
x1 = 0.5042	1.056	0.892
x1 = 0.553	1.104	0.926
x1 = 0.6472	1.211	1.001
x1 = 0.7494	1.353	1.096
x1 = 0.8486	1.52	1.204
x1 = 0.954	1.739	1.34

CCOCCO + CCCCCCC
viscosity [mPa·s], 101.33 kPa
Conditions	x1 = 0.1091	x1 = 0.1973	x1 = 0.299	x1 = 0.4	x1 = 0.5014	x1 = 0.6074	x1 = 0.6986	x1 = 0.799	x1 = 0.8989
298.15 K	0.422	0.455	0.51	0.585	0.671	–	0.922	1.12	1.39
303.15 K	0.398	0.428	0.478	0.541	0.619	0.673	0.843	1.013	1.247
308.15 K	0.377	0.404	0.449	0.506	0.574	0.63	0.772	0.927	1.133
313.15 K	0.355	0.382	0.422	0.472	0.535	0.592	0.713	0.844	1.026

CC(C)CCO + CN1CCCC1=O
298.15 K, 101 kPa
Conditions	viscosity [mPa·s]
x2 = 0.0595	3.229
x2 = 0.1189	2.874
x2 = 0.1501	2.732
x2 = 0.2008	2.549
x2 = 0.2536	2.402
x2 = 0.2994	2.298
x2 = 0.3506	2.205
x2 = 0.4002	2.132
x2 = 0.4519	2.06
x2 = 0.5025	2.015
x2 = 0.5513	1.97
x2 = 0.6039	1.926
x2 = 0.6515	1.889
x2 = 0.7026	1.855
x2 = 0.7505	1.823
x2 = 0.8015	1.791
x2 = 0.8546	1.763
x2 = 0.9046	1.739
x2 = 0.9562	1.715

CCOCCO + CCCCO
viscosity [mPa·s]
Conditions	298.15 K	303.15 K	308.15 K	313.15 K
101 kPa, x1 = 0.0837	2.434	–	–	–
101 kPa, x1 = 0.1706	2.312	–	–	–
101 kPa, x1 = 0.2606	2.206	–	–	–
101 kPa, x1 = 0.3541	2.113	–	–	–
101 kPa, x1 = 0.4513	2.035	–	–	–
101 kPa, x1 = 0.5523	1.984	–	–	–
101 kPa, x1 = 0.6574	1.949	–	–	–
101 kPa, x1 = 0.7669	1.925	–	–	–
101 kPa, x1 = 0.881	1.902	–	–	–
101.33 kPa, x1 = 0.1017	2.284	1.999	1.771	1.565
101.33 kPa, x1 = 0.2007	2.13	1.887	1.671	1.49
101.33 kPa, x1 = 0.2996	2.015	1.787	1.589	1.42
101.33 kPa, x1 = 0.4028	1.958	1.731	1.546	1.378
101.33 kPa, x1 = 0.5032	1.891	1.677	1.499	1.34
101.33 kPa, x1 = 0.6036	1.86	1.656	1.48	1.331
101.33 kPa, x1 = 0.6986	1.838	1.634	1.462	1.31
101.33 kPa, x1 = 0.8029	1.829	1.63	1.458	1.314
101.33 kPa, x1 = 0.9	1.822	1.629	1.462	1.309

CCOCCO + CO
298.15 K, 101 kPa
Conditions	viscosity [mPa·s]
x1 = 0.038	0.6216
x1 = 0.0816	0.7062
x1 = 0.1322	0.7916
x1 = 0.1916	0.8844
x1 = 0.2623	0.9885
x1 = 0.3478	1.114
x1 = 0.4534	1.255
x1 = 0.5871	1.422
x1 = 0.7619	1.625

CNCCO + COCCO
viscosity [mPa·s], 101.3 kPa
Conditions	293.15 K	298.15 K	303.15 K	308.15 K	313.15 K	318.15 K	323.15 K
x1 = 0.101	2.086	1.866	1.677	1.516	1.375	1.254	1.147
x1 = 0.303	3.283	2.869	2.523	2.234	1.988	1.78	1.601
x1 = 0.403	3.985	3.444	3	2.632	2.324	2.064	1.843
x1 = 0.503	4.964	4.234	3.644	3.163	2.766	2.435	2.156
x1 = 0.703	7.364	6.129	5.157	4.384	3.762	3.256	2.839
x1 = 0.901	10.98	8.877	7.286	6.054	5.088	4.323	3.709

CCCC[P+](CCCC)(CCCC)CCCC.[Br-] + O
Conditions	viscosity [mPa·s]
308.15 K, 101 kPa, x1 = 0.08254	6.085
